Measured values: US20090062273A1, “3-H-pyrazolopyridines and salts thereof, pharmaceutical compositions comprising same, methods of preparing same and uses of same” (priority 2006, published 2009)

biological target: T1, human insuline receptor (Ins-R) (Homo sapiens, UniProt P06213); test: InsR HTRF assay (selectivity vs. Tie2 assay 2); type: biochemical; details: IC50 assay 4/IC50 assay 2
T1 construct: GST-tagged recombinant kinase domain of the human insuline receptor; GST; purchased ProQinase, Freiburg, Germany; host or cells: SF-9 cells
Procedure: Inhibitory activity of compounds against the kinase activity of the insulin receptor was quantified employing the Ins-R HTRF assay as described in the following paragraphs.
GST-tagged recombinant kinase domain of the human insuline receptor (Ins-R, purchase from ProQinase, Freiburg, Germany) expressed in SF-9 cells was used as kinase. As substrate for the kinase reaction biotinylated poly-(Glu,Tyr) (Cis biointernational, France) was used.
Ins-R was incubated for 20 min at 22° C. in the presence of different concentrations of test compounds in 5 μl assay buffer [50 mM Hepes/NaOH pH 7, 15 mM MnCl2, 1 mM dithiothreitol, 0.1 μM sodium ortho-vanadate, 0.015% (v/v) PEG20000, 10 μM adenosine-tri-phosphate (ATP), 0.3 μg/ml substrate, 1% (v/v) dimethylsulfoxide]. The concentration of Ins-R was adjusted depending of the activity of the enzyme lot and was chosen appropriate to have the assay in the linear range, typical concentrations were in the range of 10 pg/μL. The reaction was stopped by the addition of 5 μl of a solution of HTRF detection reagents (0.1 μM streptavidine-XLent and 1 nM PT66-Eu-Chelate, an europium-chelate labelled anti-phospho-tyrosine antibody from Perkin Elmer) in an aqueous EDTA-solution (80 mM EDTA, 0.2% (w/v) bovine serum albumin in 50 mM HEPES/NaOH pH 7.0).
The resulting mixture was incubated 1 h at 22° C. to allow the binding of the biotinylated phosphorylated peptide to the streptavidine-XLent and the PT66-Eu-Chelate. Subsequently the amount of phosphorylated substrate was evaluated by measurement of the resonance energy transfer from the PT66-Eu-Chelate to the streptavidine-XLent. Therefore, the fluorescence emissions at 620 nm and 665 nm after excitation at 350 nm was measured in a HTRF reader, e.g. a Rubystar (BMG Labtechnologies, Offenburg, Germany) or a ViewLux (Perkin-Elmer). The ratio of the emissions at 665 nm and at […] was taken as the measure for the amount of phosphorylated substrate. The data were normalised (enzyme reaction without inhibitor=0% inhibition, all other assay components but no enzyme=100% inhibition) and IC50 values were calculated by a 4 parameter fit using an inhouse software.

T1 sequence (P06213 1023-1298 limits assumed): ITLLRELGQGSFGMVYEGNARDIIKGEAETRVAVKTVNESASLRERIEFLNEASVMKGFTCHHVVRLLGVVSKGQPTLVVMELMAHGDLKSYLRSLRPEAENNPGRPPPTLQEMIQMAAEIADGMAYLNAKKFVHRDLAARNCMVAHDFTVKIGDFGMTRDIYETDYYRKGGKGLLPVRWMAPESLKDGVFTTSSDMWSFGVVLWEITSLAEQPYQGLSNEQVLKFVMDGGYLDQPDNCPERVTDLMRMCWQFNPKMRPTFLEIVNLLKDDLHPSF

| Compound | Selectivity vs. InsR |
| --- | --- |
| CN1CCN(Cc2ccc(NC(=O)Nc3ccc(-c4cncc5c4cnn5C)cc3F)cc2C(F)(F)F)CC1 [Example 13.6, 1-[2-Fluoro-4-(1-methyl-1H-pyrazolo[3,4-c]pyridin-4-yl)-phenyl]-3-[4-(4-methyl-piperazin-1-ylmethyl)-3-trifluoromethyl-phenyl]-urea] | >50fold |
| CN(C)c1ccc(C(F)(F)F)cc1NC(=O)Nc1ccc(-c2cncc3c2cnn3C)cc1 [Example 13.11, 1-(2-Dimethylamino-5-trifluoromethyl-phenyl)-3-[4-(1-methyl-1H-pyrazolo[3,4-c]pyridin-4-yl)-phenyl]-urea] | >50fold |
| CN(C)C1CCN(c2ccc(C(F)(F)F)cc2NC(=O)Nc2ccc(-c3cncc4c3cnn4C)cc2)C1 (stereo not shown) [Example 13.12, 1-[2-(3-Dimethylamino-pyrrolidin-1-yl)-5-trifluoromethyl-phenyl]-3-[4-(1-methyl-1H-pyrazolo[3,4-c]pyridin-4-yl)-phenyl]-urea] | >50fold |
| CN(C)CCN(C)c1ccc(C(F)(F)F)cc1NC(=O)Nc1ccc(-c2cncc3c2cnn3C)cc1 [Example 13.13, 1-{2-[(2-Dimethylamino-ethyl)-methyl-amino]-5-trifluoromethyl-phenyl}-3-[4-(1-methyl-1H-pyrazolo[3,4-c]pyridin-4-yl)-phenyl]-urea] | >50fold |

More lines, now with the values ahead:

| Selectivity vs. InsR | Compound |
| --- | --- |
| >50fold | Cn1nc(C(C)(C)C)cc1NC(=O)Nc1ccc(-c2cncc3c2cnn3C)cc1 [Example 14.3, 1-(5-tert-Butyl-2-methyl-2H-pyrazol-3-yl)-3-[4-(1-methyl-1H-pyrazolo[3,4-c]pyridin-4-yl)-phenyl]-urea] |
| >50fold | Cn1ncc2c(-c3ccc(NC(=O)Nc4cc(C(F)(F)F)ccn4)c(F)c3)cncc21 [Example 14.5, 1-[2-Fluoro-4-(1-methyl-1H-pyrazolo[3,4-c]pyridin-4-yl)-phenyl]-3-(4-trifluoromethyl-pyridin-2-yl)-urea] |
| >50fold | CC(C)c1cc(NC(=O)Nc2ccc(-c3cncc4c3cnn4C)cc2)n(-c2cccc(F)c2)n1 [Example 15.1, 1-[2-(3-Fluoro-phenyl)-5-isopropyl-2H-pyrazol-3-yl]-3-[4-(1-methyl-1H-pyrazolo[3,4-c]pyridin-4-yl)-phenyl]-urea] |
| >50fold | CC(C)c1cc(NC(=O)Nc2ccc(-c3cncc4c3cnn4C)cc2F)n(-c2cccc(F)c2)n1 [Example 15.2, 1-[2-Fluoro-4-(1-methyl-1H-pyrazolo[3,4-c]pyridin-4-yl)-phenyl]-3-[2-(3-fluoro-phenyl)-5-isopropyl-2H-pyrazol-3-yl]-urea] |
| >50fold | COc1cccc(-n2nc(C(C)(C)C)cc2NC(=O)Nc2ccc(-c3cncc4c3cnn4C)cc2)c1 [Example 15.5, 1-[5-tert-Butyl-2-(3-methoxy-phenyl)-2H-pyrazol-3-yl]-3-[4-(1-methyl-1H-pyrazolo[3,4-c]pyridin-4-yl)-phenyl]-urea] |
| >50fold | Cn1ncc2c(-c3ccc(NC(=O)Nc4cc(C(C)(C)C)nn4-c4ccc(F)cc4)cc3)cncc21 [Example 15.7, 1-[5-tert-Butyl-2-(4-fluoro-phenyl)-2H-pyrazol-3-yl]-3-[4-(1-methyl-1H-pyrazolo[3,4-c]pyridin-4-yl)-phenyl]-urea] |
| >50fold | Cn1ncc2c(-c3ccc(NC(=O)Nc4cc(C(C)(C)C)nn4-c4ccncc4)cc3)cncc21 [Example 15.10, 1-(5-tert-Butyl-2-pyridin-4-yl-2H-pyrazol-3-yl)-3-[4-(1-methyl-1H-pyrazolo[3,4-c]pyridin-4-yl)-phenyl]-urea] |
| >50fold | Cn1ncc2c(-c3ccc(NC(=O)Nc4cc(C(C)(C)C)nn4-c4cncc(F)c4)cc3)cncc21 [Example 15.12, 1-[5-tert-Butyl-2-(5-fluoro-pyridin-3-yl)-2H-pyrazol-3-yl]-3-[4-(1-methyl-1H-pyrazolo[3,4-c]pyridin-4-yl)-phenyl]-urea] |
| >50fold | Cn1ncc2c(-c3ccc(NC(=O)Nc4cc(C(C)(C)C)nn4-c4cncc(F)c4)c(F)c3)cncc21 [Example 15.13, 1-[5-tert-Butyl-2-(5-fluoro-pyridin-3-yl)-2H-pyrazol-3-yl]-3-[2-fluoro-4-(1-methyl-1H-pyrazolo[3,4-c]pyridin-4-yl)-phenyl]-urea] |
